# Data from US7951385B2, “Probiotic strain and antimicrobial peptide derived therefrom” (Cipla Medpro Research and Development (Pty) Ltd., priority 2006, dated 2011).
# Bridge positions count the residues as written; N and C are the ends. Square brackets hold non-standard residues; d marks the D form. Peptide text beside a SMILES is read from it. * marks the point of attachment. Ileψ(thiazoline)Cys = CC[C@H](C)[C@H](N)C1=N[C@H](C(=O)*)CS1; dOrn = NCCC[C@@H](N)C(=O)O
# What was measured:
# strain ST4SA [1] = test: Antibiotic resistance of strain ST4SA (antibiotic discs, Oxoid); type: cell-based, Enterococcus mundtii
# strain ST4SA [2] = test: Growth of strain ST4SA in the presence of TMP-SMX and Metronidazole; type: cell-based, Enterococcus mundtii; details: for Number of viable cells of strain ST4SA: NAN Palargon, 18 h, 37° C., control 1 × 10^8
# Procedure: Children with HIV/AIDS are treated with Trimethoprim-sulfamethoxazole (TMP-SMX) and/or Metronidazole to prevent diarrhea.
# strain ST4SA [3] = test: Resistance of E. mundtii ST4 against antibiotics and anti-inflammatory drugs; type: cell-based, Enterococcus mundtii; details: Ibuprofen 5, Aspirin 5, Promoxil 100, Cipadur 50, Cefasyn 100, Roxibidd 30, Doximal 20, Ciploxx 100, Utin 80, Rheugesic 4, Coxflam 1.5, K-fenak 5, Preflam 3 mg/ml
# [4] = system: Pseudomonas sp. isolated from infected middle-ear fluid; test: Activity on paper disks and comparison with antibiotics (inhibition zones); type: cell-based; details: Ampicillin 10 μg, Bacitracin 10 units, Chloramphenicol 30 μg, Erythromycin 15 μg, Tetracycline 30 μg, peptide on paper disk
# Procedure: Activity was tested against a Pseudomonas sp. isolated from infected middle-ear fluid.
# [5] = system: Lactobacillus sakei DSM 20017; test: Blocking of the Lipid II target site with vancomycin; type: cell-based; details: L. sakei DSM 20017, FIG. 26
# Text: To test this hypothesis, the Lipid II target site of Lactobacillus sakei DSM 20017 (sensitive to peptide ST 4SA) was blocked with vancomycin (see schematic presentation, FIG. 26). Vancomycin adheres to the amino acid side chain of the Lipid II molecule, which would, theoretically, prevent peptide ST4SA from binding to the same site (that is if Lipid II acts as receptor). […] The fact that peptide ST4SA binds to more than one anchoring site on the sensitive cell may explain why it has such a broad spectrum of antimicrobial activity (inhibitory to Gram-positive and Gram-negative bacteria).
# [6] = Pseudomonas, read-out: Diameter of inhibition zones
Compound,Inhibition zone of antibiotic on ST4 (strain ST4SA [1]),Resistance of strain ST4SA to antibiotic (strain ST4SA [1]),further results
CO[C@@H]1[C@@H](OC(N)=O)[C@@H](O)[C@H](Oc2ccc3c(O)c(NC(=O)c4ccc(O)c(CC=C(C)C)c4)c(=O)oc3c2C)OC1(C)C [Novobiocin],"+++ (+++ = inhibition zone, diameter larger than 17 mm)",,
CC1COc2c(N3CCN(C)CC3)c(F)cc3c(=O)c(C(=O)O)cn1c23 (stereo not shown) [Oflaxacin],"++ (++ = inhibition zone, diameter 12 to 16 mm)",,
Penicillin,"+++ (+++ = inhibition zone, diameter larger than 17 mm)",,
CO[C@H]1/C=C/O[C@@]2(C)Oc3c(C)c(O)c4c(O)c(c(/C=N/N5CCN(C)CC5)c(O)c4c3C2=O)NC(=O)/C(C)=C\C=C\[C@H](C)[C@H](O)[C@@H](C)[C@@H](O)[C@@H](C)[C@H](OC(C)=O)[C@@H]1C [Rifampicin],"+++ (+++ = inhibition zone, diameter larger than 17 mm)",,
Cc1nnc(SCC2=C(C(=O)O)N3C(=O)[C@@H](NC(=O)Cn4cnnn4)[C@H]3SC2)s1 [Cephazolin],"+ (+ = inhibition zone, diameter 1 to 11 mm)",,
[H]/N=C(/N)N[C@H]1[C@H](O)[C@@H](O)[C@H](O[C@@H]2O[C@@H](C)[C@](O)(C=O)[C@H]2O[C@@H]2O[C@@H](CO)[C@H](O)[C@@H](O)[C@@H]2NC)[C@@H](N/C(N)=N\[H])[C@@H]1O [Streptomycin],−,resistant,
Cc1ncc([N+](=O)[O-])n1CCO [Metronidazole],−,resistant,Decrease of cell numbers of strain ST4SA (strain ST4SA [2]): four; Number of viable cells of strain ST4SA (strain ST4SA [2]; Metronidazole 50 mg): 1.3 × 10^4; Number of viable cells of strain ST4SA (strain ST4SA [2]; Metronidazole 100 mg): 6 × 10^4; Number of viable cells of strain ST4SA (strain ST4SA [2]; Metronidazole 200 mg): 3 × 10^4
CC(C)Cc1ccc(C(C)C(=O)O)cc1 (stereo not shown) [Ibuprofen],,,Inhibition zone of medicament on Strain ST4SA (strain ST4SA [3]): ++ (++ = diameters between 12 mm and 16 mm)
COc1cccc(OC)c1C(=O)N[C@@H]1C(=O)N2[C@@H]1SC(C)(C)[C@@H]2C(=O)O [Methicillin],−,resistant,
CC(=O)Oc1ccccc1C(=O)O [Aspirin],,,Inhibition zone of medicament on Strain ST4SA (strain ST4SA [3]): + (+ = diameters between 1 mm and 11 mm)
CC1(C)S[C@@H]2[C@H](NC(=O)[C@H](N)c3ccccc3)C(=O)N2[C@H]1C(=O)O [Ampicillin],"+++ (+++ = inhibition zone, diameter larger than 17 mm)",,"zone of inhibition at 10 µg/disc [4, 6]: 24 mm"
CC[C@H](C)[C@H](N)C1=N[C@H](C(=O)N[C@@H](CC(C)C)C(=O)N[C@H](CCC(=O)O)C(=O)N[C@H](C(=O)N[C@H]2CCCCNC(=O)[C@H](CC(N)=O)NC(=O)[C@@H](CC(=O)O)NC(=O)[C@H](Cc3cnc[nH]3)NC(=O)[C@@H](Cc3ccccc3)NC(=O)[C@H]([C@@H](C)CC)NC(=O)[C@@H](CCCN)NC2=O)[C@@H](C)CC)CS1 [Bacitracin] ({Ileψ(thiazoline)Cys}-L[dE]IK[dOrn]I[dF]H[dD]N; lactam 4-C),"++ (++ = inhibition zone, diameter 12 to 16 mm)",,Diameter of inhibition zones [4]: 10 mm
CN[C@H](CC(C)C)C(=O)N[C@H]1C(=O)N[C@@H](CC(N)=O)C(=O)N[C@H]2C(=O)N[C@H]3C(=O)N[C@H](C(=O)N[C@H](C(=O)O)c4cc(O)cc(O)c4-c4cc3ccc4O)[C@H](O)c3ccc(c(Cl)c3)Oc3cc2cc(c3O[C@@H]2O[C@H](CO)[C@@H](O)[C@H](O)[C@H]2O[C@H]2C[C@](C)(N)[C@H](O)[C@H](C)O2)Oc2ccc(cc2Cl)[C@H]1O [Vancomycin],"++ (++ = inhibition zone, diameter 12 to 16 mm)",,
O=C(O)c1cn(C2CC2)c2cc(N3CCNCC3)c(F)cc2c1=O [Ciprofloxzcin],"+++ (+++ = inhibition zone, diameter larger than 17 mm)",,
CC[C@H]1OC(=O)[C@H](C)[C@@H](O[C@H]2C[C@@](C)(OC)[C@@H](O)[C@H](C)O2)[C@H](C)[C@@H](O[C@@H]2O[C@H](C)C[C@H](N(C)C)[C@H]2O)[C@](C)(O)C[C@@H](C)C(=O)[C@H](C)[C@@H](O)[C@]1(C)O [Erythromycin],"+++ (+++ = inhibition zone, diameter larger than 17 mm)",,Diameter of inhibition zones [4]: No zone
Cc1onc(-c2ccccc2Cl)c1C(=O)N[C@@H]1C(=O)N2[C@@H]1SC(C)(C)[C@@H]2C(=O)O [Cloxacillin],−,resistant,
C[C@@H]1[C@H](O)[C@@H](C)/C=C/C=C/CC/C=C/C=C/C=C/C=C/C(O[C@H]2O[C@H](C)[C@@H](O)[C@H](N)[C@@H]2O)CC2O[C@](O)(CC(O)C(O)CCC(O)CC(O)CC(O)CC(=O)O[C@H]1C)CC(O)C2C(=O)O (stereo partly shown) [Nystatin],−,resistant,
Trimethoprim-sulfamethoxazole [TMP-SMX],,,Decrease of cell numbers of strain ST4SA (strain ST4SA [2]): four; Number of viable cells of strain ST4SA (strain ST4SA [2]; TMP-SMX 20/100 mg): 7 × 10^4; Number of viable cells of strain ST4SA (strain ST4SA [2]; TMP-SMX 40/200 mg): 8 × 10^4; Number of viable cells of strain ST4SA (strain ST4SA [2]; TMP-SMX 60/300 mg): 8 × 10^4; Number of viable cells of strain ST4SA (strain ST4SA [2]; TMP-SMX 80/400 mg): 1.8 × 10^4
CN(C)[C@@H]1C(O)=C(C(N)=O)C(=O)[C@@]2(O)C(O)=C3C(=O)c4c(O)cccc4[C@@](C)(O)[C@H]3C[C@@H]12 [Tetracycline],"+++ (+++ = inhibition zone, diameter larger than 17 mm)",,"zone of inhibition at 30 µg/disc [4, 6]: 35 mm"
Cc1onc(-c2ccccc2)c1C(=O)N[C@@H]1C(=O)N2[C@@H]1SC(C)(C)[C@@H]2C(=O)O [Oxacillin],−,resistant,
O=C(N[C@H](CO)[C@H](O)c1ccc([N+](=O)[O-])cc1)C(Cl)Cl [Chloramphenicol],"+++ (+++ = inhibition zone, diameter larger than 17 mm)",,"zone of inhibition at 30 µg/disc [4, 6]: 28 mm"
Neomycin,−,resistant,
Nisin [reference compound],,,Effect on target cells after blocking Lipid II with vancomycin [5]: prevented the binding of Nisin to the Lipid II target site
